24 compounds from US20130053381A1, “2,4-DIOXO-1,4-DIHYDRO-2H-QUINAZOLIN-3-YL-SULFONAMIDE DERIVATIVES” (NOVARTIS AG, priority 2010, published 2013) can be followed below.

This assay deals with OF1 mice. Briefly: Maximal electroshock test (MES Test). The following applies: for responders at 50 mg/kg / responders at 15 mg/kg / responders at 25 mg/kg: Mus musculus, read-out: %-Protection; for responders at 15 mg/kg: p.o. (footnote c); for responders at 25 mg/kg: p.o. (footnote b). It is filed as in vivo. As for the experimental part:
Compounds of the invention were tested in OF1 mice using the maximal electroshock test (MES Test) described in detail by Schmutz et al., Naunyn-Schmiedeberg's Arch Pharmacol 1990, 342, 61-66. Briefly, generalized tonic-clonic convulsions of the hind extremities were induced by passing electrical current through temporal electrodes (50 Hz, 18 mA, 0.2s). […] 30 mg/kg carbamazepine was used as a positive control; mice were classified as protected by a compound If the duration of the seizure lasted only 3 second or less. Five mice were used for each treatment condition and the percentage of protected mice was used as readout (i.e. a compound could give 0%, 20%, 40%, 60%, 80% or 100% protection). Usually, compounds of the invention or their parents were given at a dose of 50 mg/kg, p.o., 1 hour prior to induction of convulsions (i.e. “pre-treatment time −1 h”).
ED50 values (ED: effective dose) were calculated using GraphPad Prism, v4.02. after shock administration, mouse blood was collected for determination of compounds' blood exposure.

Where [1] appears, read: dose of up to 50 mg/kg, p.o., 1 hour prior to induction of convulsions.
[2] abbreviates: po, 50 mg/kg, p.o., pre-treatment time −1 h.

Structures are written as SMILES. Where two headings read alike, the source gives them in different places.

With `CCCCCC(=O)N(n1c(=O)[nH]c2cc(C(F)F)c(-c3ccnn3C(C)C)cc2c1=O)S(C)(=O)=O` [N-[7-Difluoromethyl-6-(2-isopropyl-2H-pyrazol-3-yl)-2,4-dioxo-1,4-dihydro-2H-quinazolin-3-yl]-N-hexanoyl-methanesulfonamide], under setting [1], the responders at 50 mg/kg was found to be 0%.
Take `Cc1nccn1-c1cc2c(=O)n(NS(C)(=O)=O)c(=O)[nH]c2cc1C(F)(F)F` [Example 7.0, N-[6-(2-Methyl-imidazol-1-yl)-2,4-dioxo-7-trifluoromethyl-1,4-dihydro-2H-quinazolin-3-yl]-methanesulfonamide]: the responders at 50 mg/kg under setting [2] is 0%.
As for `CCOC(=O)CC(=O)N(n1c(=O)[nH]c2cc(C(C)C)c(-c3ccnn3C)cc2c1=O)S(C)(=O)=O` [Example 3.07, 3-{[7-Isopropyl-6-(2-methyl-2H-pyrazol-3-yl)-2,4-dioxo-1,4-dihydro-2H-quinazolin-3-yl]-methanesulfonyl-amino}-3-oxo-propionic acid ethyl ester], the responders at 15 mg/kg (po, pre-treatment time −1 h) was found to be 80%.
For `COCCOC(=O)N(n1c(=O)[nH]c2cc(C(F)(F)F)c(-c3ccnn3C(C)C)cc2c1=O)S(C)(=O)=O` [Example 5.10, [6-(2-Isopropyl-2H-pyrazol-3-yl)-2,4-dioxo-7-trifluoromethyl-1,4-dihydro-2H-quinazolin-3-yl]-methanesulfonyl-carbamic acid 2-methoxy-ethyl ester], under setting [2], the responders at 50 mg/kg worked out at 20%.
Take `CCOC(=O)N(n1c(=O)[nH]c2cc(C(F)(F)F)c(-n3ccnc3C)cc2c1=O)S(C)(=O)=O` [Example 7.01, Methanesulfonyl-[6-(2-methyl-imidazol-1-yl)-2,4-dioxo-7-trifluoromethyl-1,4-dihydro-2H-quinazolin-3-yl]-carbamic acid ethyl ester]: under setting [2], the responders at 50 mg/kg worked out at 40%.
Take `CCCCC(=O)N(n1c(=O)[nH]c2cc(C(F)F)c(-c3ccnn3C(C)C)cc2c1=O)S(C)(=O)=O` [Example 6.03, N-[7-Difluoromethyl-6-(2-isopropyl-2H-pyrazol-3-yl)-2,4-dioxo-1,4-dihydro-2H-quinazolin-3-yl]-N-pentanoyl-methanesulfonamide]: the responders at 50 mg/kg under setting [2] was 40%. Moreover, the responders at 25 mg/kg (po, pre-treatment time −1 h) amounted to 0%.
`CCOC(=O)N(n1c(=O)[nH]c2cc(C(C)C)c(-c3ccnn3C)cc2c1=O)S(C)(=O)=O` [Example 3.19, [7-Isopropyl-6-(2-methyl-2H-pyrazol-3-yl)-2,4-dioxo-1,4-dihydro-2H-quinazolin-3-yl]-methanesulfonyl-carbamic acid ethyl ester]: the responders at 50 mg/kg under setting [2] came to 100%.
On the same count and under the same terms, the figure for `CCCCCC(=O)N(n1c(=O)[nH]c2cc(C(F)(F)F)c(C(O)CC)cc2c1=O)S(C)(=O)=O` (stereo not drawn) [Example 12.01, N-Hexanoyl-N-[6-(1-hydroxy-propyl)-2,4-dioxo-7-trifluoromethyl-1,4-dihydro-2H-quinazolin-3-yl]-methanesulfonamide] is 40%.
Consider `CCCCC(=O)N(n1c(=O)[nH]c2cc(C(F)(F)F)c(-c3ccnn3C(C)C)cc2c1=O)S(C)(=O)=O` [N-[6-(2-Isopropyl-2H-pyrazol-3-yl)-2,4-dioxo-7-trifluoromethyl-1,4-dihydro-2H-quinazolin-3-yl]-N-pentanoyl-methanesulfonamide], for which the responders at 50 mg/kg under setting [1] turned out to be 0%.
On to `CCC(=O)N(n1c(=O)[nH]c2cc(C(F)(F)F)c(-n3cccc3)cc2c1=O)S(C)(=O)=O` [Example 8.01, N-(2,4-Dioxo-6-pyrrol-1-yl-7-trifluoromethyl-1,4-dihydro-2H-quinazolin-3-yl)-N-propionyl-methanesulfonamide], for which the responders at 50 mg/kg under setting [2] turned out to be 20%.
As for `CC(=O)N(n1c(=O)[nH]c2cc(C(F)(F)F)c(-c3ccnn3C(C)C)cc2c1=O)S(C)(=O)=O` [Example 5.01, N-Acetyl-N-[6-(2-isopropyl-2H-pyrazol-3-yl)-2,4-dioxo-7-trifluoromethyl-1,4-dihydro-2H-quinazolin-3-yl]-methanesulfonamide], under setting [2], the responders at 50 mg/kg came to 60%.
Regarding `CCCCC(=O)N(n1c(=O)[nH]c2cc(C(F)(F)F)c(C(O)CC)cc2c1=O)S(C)(=O)=O` (stereo not drawn) [Example 12.05, N-[6-(1-Hydroxy-propyl)-2,4-dioxo-7-trifluoromethyl-1,4-dihydro-2H-quinazolin-3-yl]-N-pentanoyl-methanesulfonamide], under setting [2], the responders at 50 mg/kg stood at 40%.
`CC(=O)N(n1c(=O)[nH]c2cc(C(F)(F)F)c([C@H]3CCCO3)cc2c1=O)S(C)(=O)=O` [Example 10.01, N-Acetyl-N—((R)-2,4-dioxo-6-tetrahydro-furan-2-yl-7-trifluoromethyl-1,4-dihydro-2H-quinazolin-3-yl)-methanesulfonamide]: the responders at 50 mg/kg by setting is: (po, 50 mg/kg, p.o., pre-treatment time −0.5 h (footnote d)) 40%; under setting [2], 80%.
As for `CCCCOC(=O)N(n1c(=O)c2cc(-c3ccnn3C)c(C(C)C)cc2n(C(=O)OCCCC)c1=O)S(C)(=O)=O` [Example 3.35, 3-(Butoxycarbonyl-methanesulfonyl-amino)-7-isopropyl-6-(2-methyl-2H-pyrazol-3-yl)-2,4-dioxo-3,4-dihydro-2H-quinazoline-1-carboxylic acid butyl ester], the responders at 50 mg/kg under setting [2] turned out to be 80%.
`CCc1cc2[nH]c(=O)n(N(C(=O)C(C)C)S(C)(=O)=O)c(=O)c2cc1-c1ccnn1C` [N-[7-Ethyl-6-(2-methyl-2H-pyrazol-3-yl)-2,4-dioxo-1,4-dihydro-2H-quinazolin-3-yl]-N-isobutyryl-methanesulfonamide]: the responders at 50 mg/kg under setting [1] came to 0%.
On to `CC(=O)N(n1c(=O)c2cc(-c3ccnn3C)c(C(C)C)cc2n(C(C)=O)c1=O)S(C)(=O)=O` [Example 3.24, N-Acetyl-N-[1-acetyl-7-isopropyl-6-(2-methyl-2H-pyrazol-3-yl)-2,4-dioxo-1,4-dihydro-2H-quinazolin-3-yl]-methanesulfonamide], for which the responders at 50 mg/kg is 100% under setting [2]; 100% (po, Table 5, 50 mg/kg, p.o., pre-treatment time −0.25 h); 100% (po, Table 5, 50 mg/kg, p.o., pre-treatment time −0.5 h). The “%-Protection” value (Table 5, 50 mg/kg, p.o., pre-treatment time −1 h) is reported as 100%.
With `CCOC(=O)CCC(=O)N(n1c(=O)[nH]c2cc(C(F)(F)F)c(-c3ccnn3C(C)C)cc2c1=O)S(C)(=O)=O` [4-{[6-(2-Isopropyl-2H-pyrazol-3-yl)-2,4-dioxo-7-trifluoromethyl-1,4-dihydro-2H-quinazolin-3-yl]-methanesulfonyl-amino}-4-oxo-butyric acid ethyl ester], under setting [1], the responders at 50 mg/kg was found to be 0%.
In the case of `CCCOC(=O)N(n1c(=O)[nH]c2cc(C(F)(F)F)c(-n3ccnc3C)cc2c1=O)S(C)(=O)=O` [Example 7.03, Methanesulfonyl-[6-(2-methyl-imidazol-1-yl)-2,4-dioxo-7-trifluoromethyl-1,4-dihydro-2H-quinazolin-3-yl]-carbamic acid propyl ester], the responders at 50 mg/kg under setting [2] is 40%.
On to `CCCC(=O)N(n1c(=O)[nH]c2cc(C(F)F)c(-c3ccnn3C(C)C)cc2c1=O)S(C)(=O)=O` [Example 6.02, N-Butyryl-N-[7-difluoromethyl-6-(2-isopropyl-2H-pyrazol-3-yl)-2,4-dioxo-1,4-dihydro-2H-quinazolin-3-yl]-methanesulfonamide], for which, under setting [2], the responders at 50 mg/kg came to 40%. In addition, where the note is “po, pre-treatment time −1 h”, the responders at 25 mg/kg worked out at 0%.
On to `CCCCC(=O)N(n1c(=O)[nH]c2cc(C(C)C)c(-c3ccnn3C)cc2c1=O)S(C)(=O)=O` [Example 3.09, N-[7-Isopropyl-6-(2-methyl-2H-pyrazol-3-yl)-2,4-dioxo-1,4-dihydro-2H-quinazolin-3-yl]-N-pentanoyl-methanesulfonamide], for which the responders at 15 mg/kg (po, pre-treatment time −1 h) amounted to 100%.
With `Cc1nccn1-c1cc2c(=O)n(N(C(=O)OCC(C)C)S(C)(=O)=O)c(=O)[nH]c2cc1C(F)(F)F` [Example 7.04, Methanesulfonyl-[6-(2-methyl-imidazol-1-yl)-2,4-dioxo-7-trifluoromethyl-1,4-dihydro-2H-quinazolin-3-yl]-carbamic acid isobutyl ester], the responders at 50 mg/kg under setting [2] came out at 40%.
As for `CCc1cc2[nH]c(=O)n(N(C(C)=O)S(C)(=O)=O)c(=O)c2cc1-c1ccnn1C` [Example 2.01, N-Acetyl-N-[7-ethyl-6-(2-methyl-2H-pyrazol-3-yl)-2,4-dioxo-1,4-dihydro-2H-quinazolin-3-yl]-methanesulfonamide], the responders at 50 mg/kg under setting [2] was determined as 100%.
`CCCCCCOC(=O)N(n1c(=O)[nH]c2cc(C(F)(F)F)c([C@H]3CCCO3)cc2c1=O)S(C)(=O)=O` [Methanesulfonyl-[(R)-2,4-Dioxo-6-tetrahydro-furan-2-yl-7-trifluoromethyl-1,4-dihydro-2H-quinazolin-3-yl]carbamic acid hexyl ester]: the responders at 50 mg/kg under setting [1] was 0%.
Consider `CC(C)C(=O)N(n1c(=O)[nH]c2cc(C(F)(F)F)c(-n3ccnc3)cc2c1=O)S(C)(=O)=O` [Example 4.05, N-(6-Imidazol-1-yl-2,4-dioxo-7-trifluoromethyl-1,4-dihydro-2H-quinazolin-3-yl)-N-isobutyryl-methanesulfonamide], for which the responders at 50 mg/kg under setting [2] worked out at 80%.
